This note sets out measurements from the supplement of paper PMC12137928.

The assay deals with HCT116. The conditions noted are these: 72 h. A digest of the protocol: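 Four-parameter Hill fits gave IC50 and maximal efficacy. The data were CellTiter-Glo luminescence readings in HCT116 cells, normalized so that vehicle was 0% and positive control was -100%, with pattern correction afterwards.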

Structures can show the parent of a compound that is named as a salt.

In the case of `C[C@@H](O)[C@H]1C(=O)N2C(C(=O)[O-])=C(SC3Cn4cnc[n+]4C3)[C@H](C)[C@H]12` (stereo partly specified) [Biapenem], the IC50 cell viability is above 45.8 µM (ICRF193 0 nM) and above 45.8 µM (ICRF193 200 nM).
Turning to `CCOC(=O)[C@H](CCc1ccccc1)N[C@@H](C)C(=O)N1C(=O)N(C)C[C@H]1C(=O)O` [Imidapril hydrochloride], the IC50 cell viability was above 45.8 µM (ICRF193 0 nM) and above 45.8 µM (ICRF193 200 nM).
On to `Cc1ccc(S(=O)(=O)NC(=O)NN2CCCCCC2)cc1` [Tolazamide], for which the IC50 cell viability reads like this: (ICRF193 0 nM) above 45.8 µM; (ICRF193 200 nM) above 45.8 µM.
Take `CCCCOC(=O)C(=O)Nc1cccc(-c2nnn[nH]2)c1` [Tazanolast]: the IC50 cell viability is, setting by setting: (ICRF193 0 nM) above 45.8 µM; (ICRF193 200 nM) above 45.8 µM.
On to `C/C(=C1\CCOC(=O)S1)N(C=O)Cc1cnc(C)nc1N` [Cycotiamine], for which the IC50 cell viability is above 45.8 µM (ICRF193 0 nM) and above 45.8 µM (ICRF193 200 nM).
Take `NC(=O)NC1N=C([O][Al])NC1=O.O.O` (stereo unspecified) [Isalon]: the IC50 cell viability reads like this: (ICRF193 0 nM) above 45.8 µM; (ICRF193 200 nM) above 45.8 µM.
Compound `Clc1ccc(C(c2ccccc2Cl)C(Cl)Cl)cc1` (stereo unspecified) [Mitotane] displayed an IC50 cell viability (ICRF193 0 nM) above 45.8 µM and an IC50 cell viability (ICRF193 200 nM) above 45.8 µM.
For the compound `C=C(CC)C(=O)c1ccc(OCC(=O)O)c(Cl)c1Cl` [Ethacrynic acid], the IC50 cell viability reads like this: (ICRF193 0 nM) above 45.8 µM; (ICRF193 200 nM) above 45.8 µM.
On to `Cc1onc(-c2ccccc2Cl)c1C(=O)N[C@@H]1C(=O)N2[C@@H]1SC(C)(C)[C@@H]2C(=O)O` [Cloxacillin sodium], for which the IC50 cell viability is, setting by setting: (ICRF193 0 nM) above 45.8 µM; (ICRF193 200 nM) above 45.8 µM.
With `O=c1[nH]c(=O)n([C@H]2C[C@H](O)[C@@H](CO)O2)cc1I` [Idoxuridine], the IC50 cell viability is, setting by setting: (ICRF193 0 nM) above 45.8 µM; (ICRF193 200 nM) above 45.8 µM.
In turn, `CC/C=C\C/C=C\C/C=C\C/C=C\C/C=C\CCCC(=O)OCC` [Eicosapentaenoic acid ethyl ester] displayed an IC50 cell viability (ICRF193 0 nM) above 45.8 µM and an IC50 cell viability (ICRF193 200 nM) above 45.8 µM.
`CC1=C(/C=C/C(C)=C/C=C/C(C)=C\C(=O)O)C(C)(C)CCC1` [Isotretinoin]: the IC50 cell viability runs as follows: (ICRF193 0 nM) above 45.8 µM; (ICRF193 200 nM) above 45.8 µM.
With `CN(C)CC(c1ccc(O)cc1)C1(O)CCCCC1` (stereo unspecified) [DESVENLAFAXINE SUCCINATE], the IC50 cell viability runs as follows: (ICRF193 0 nM) above 45.8 µM; (ICRF193 200 nM) above 45.8 µM.
For `Nc1nc(=O)c(Br)c(-c2ccccc2)[nH]1` [Bropirimine], the IC50 cell viability is, setting by setting: (ICRF193 0 nM) above 45.8 µM; (ICRF193 200 nM) above 45.8 µM.
For `Cc1ccc(/N=C/N(C)/C=N/c2ccc(C)cc2C)c(C)c1` [Amitraz], the IC50 cell viability was above 45.8 µM (ICRF193 0 nM) and above 45.8 µM (ICRF193 200 nM).
For `O=c1oc2ccccc2c(O)c1Cc1c(O)c2ccccc2oc1=O` [Dicumarol], the IC50 cell viability was above 45.8 µM (ICRF193 0 nM) and above 45.8 µM (ICRF193 200 nM).
On to `CCOC(=O)[N-]c1c[n+](N2CCOCC2)no1` [Molsidomine], for which the IC50 cell viability (ICRF193 0 nM) is above 45.8 µM and the IC50 cell viability (ICRF193 200 nM) was above 45.8 µM.
In the case of `CCOC(=O)C1=C[C@@H](OC(CC)CC)[C@H](NC(C)=O)[C@@H](N)C1` [Oseltamivir Phosphate], the IC50 cell viability was above 45.8 µM (ICRF193 0 nM) and above 45.8 µM (ICRF193 200 nM).
For `O=C(C1CCCCC1)N1CC(=O)N2CCCc3ccccc3C2C1` (stereo unspecified) [Epsiprantel], the IC50 cell viability is, setting by setting: (ICRF193 0 nM) above 45.8 µM; (ICRF193 200 nM) above 45.8 µM.
As for `CCN(CC)CCS(=O)(=O)[C@@H]1CCN2C(=O)c3coc(n3)CC(=O)C[C@H](O)/C=C(C)/C=C/CNC(=O)/C=C/[C@@H](C)[C@@H](C(C)C)OC(=O)[C@@H]12` [Dalfopristin], the IC50 cell viability was above 45.8 µM (ICRF193 0 nM) and above 45.8 µM (ICRF193 200 nM).
Regarding `O=C(O)CCC/C=C\CC1C(O)CC(O)C1/C=C/C(O)COc1cccc(Cl)c1` (stereo unspecified) [Cloprostenol (sodium salt)], the IC50 cell viability (ICRF193 0 nM) was above 45.8 µM and the IC50 cell viability (ICRF193 200 nM) is above 45.8 µM.
Take `CN(C)/C=N/c1c(I)cc(I)c(CCC(=O)O)c1I` [Ipodate sodium]: the IC50 cell viability was above 45.8 µM (ICRF193 0 nM) and above 45.8 µM (ICRF193 200 nM).
Regarding `O=C(O)CNC(=O)CNC(=O)CNC(=O)CSC(=O)c1ccccc1` [Betiatide], the IC50 cell viability is above 45.8 µM (ICRF193 0 nM) and above 45.8 µM (ICRF193 200 nM).
Turning to `COc1ccc(-c2cc(=S)ss2)cc1` [Anethole trithione], the IC50 cell viability (ICRF193 0 nM) was above 45.8 µM and the IC50 cell viability (ICRF193 200 nM) is above 45.8 µM.
`COc1c2occc2cc2ccc(=O)oc12` [Methoxsalen]: the IC50 cell viability is, setting by setting: (ICRF193 0 nM) above 45.8 µM; (ICRF193 200 nM) above 45.8 µM.
For the compound `CN[C@@H]1[C@@H](O)[C@@H](O[C@@H]2[C@H](O)[C@H](O[C@H]3OC(CN)=CC[C@H]3N)[C@@H](N)C[C@H]2N)OC[C@]1(C)O` [Pentisomicin], the IC50 cell viability was above 45.8 µM (ICRF193 0 nM) and above 45.8 µM (ICRF193 200 nM).
On to `CCOC(=O)CCC(=O)O[C@H]1[C@H](O[C@@H]2[C@@H](C)[C@H](O[C@H]3C[C@@](C)(OC)[C@@H](O)[C@H](C)O3)[C@@H](C)C(=O)O[C@H](CC)[C@@](C)(O)[C@H](O)[C@@H](C)C(=O)[C@H](C)C[C@@]2(C)O)O[C@H](C)C[C@@H]1N(C)C` [ERYTHROMYCIN ETHYLSUCCINATE], for which the IC50 cell viability reads like this: (ICRF193 0 nM) above 45.8 µM; (ICRF193 200 nM) above 45.8 µM.
As for `CO/N=C(\C(=O)N[C@@H]1C(=O)N2C(C(=O)[O-])=C(C[n+]3ccc(N)n3CCO)CS[C@H]12)c1csc(N)n1` [Cefoselis (sulfate)], the IC50 cell viability was above 45.8 µM (ICRF193 0 nM) and above 45.8 µM (ICRF193 200 nM).
On to `CCCCCCCCCCCCCCCCCCOCC(O)CO` (stereo unspecified) [3-(Octadecyloxy)-1,2-propanediol], for which the IC50 cell viability reads like this: (ICRF193 0 nM) above 45.8 µM; (ICRF193 200 nM) above 45.8 µM.
`NC[C@H]1O[C@H](O[C@H]2[C@H](O[C@@H]3O[C@H](CO)[C@@H](O)[C@H]3O)[C@@H](O)[C@H](N)C[C@@H]2N)[C@H](N)[C@@H](O)[C@@H]1O` [Ribostamycin sulfate] returned an IC50 cell viability (ICRF193 0 nM) above 45.8 µM and an IC50 cell viability (ICRF193 200 nM) above 45.8 µM.
Consider `CNC(C)Cc1ccccc1OC` (stereo unspecified) [Methoxyphenamine], for which the IC50 cell viability runs as follows: (ICRF193 0 nM) above 45.8 µM; (ICRF193 200 nM) above 45.8 µM.
As to `Cc1cccc(N(C)C(=S)Oc2ccc3c(c2)C2CCC3C2)c1` (stereo unspecified) [Tolciclate], the IC50 cell viability is above 45.8 µM (ICRF193 0 nM) and above 45.8 µM (ICRF193 200 nM).
As to `NC(=O)c1cn(Cc2c(F)cccc2F)nn1` [Rufinamide], the IC50 cell viability by setting is: (ICRF193 0 nM) above 45.8 µM; (ICRF193 200 nM) above 45.8 µM.
`CCCCC(=O)O[C@]1(C(=O)CO)CC[C@H]2[C@@H]3CCC4=CC(=O)CC[C@]4(C)[C@H]3[C@@H](O)C[C@@]21C` [Hydrocortisone valerate]: the IC50 cell viability was above 45.8 µM (ICRF193 0 nM) and above 45.8 µM (ICRF193 200 nM).
Regarding `Cc1ccc(C(=O)C(C)CN2CCCCC2)cc1` (stereo unspecified) [Tolperisone hydrochloride], the IC50 cell viability was above 45.8 µM (ICRF193 0 nM) and above 45.8 µM (ICRF193 200 nM).
Consider `CC(=O)OCC(=O)[C@@]1(O)CC[C@H]2[C@@H]3CCC4=CC(=O)CC[C@]4(C)[C@H]3[C@@H](O)C[C@@]21C` [Hydrocortisone acetate], for which the IC50 cell viability reads like this: (ICRF193 0 nM) above 45.8 µM; (ICRF193 200 nM) above 45.8 µM.
Regarding `Cc1ccccc1/N=N/c1ccc(/N=N/c2c(O)ccc3ccccc23)c(C)c1` [C.I. Solvent Red 24], the IC50 cell viability runs as follows: (ICRF193 0 nM) above 45.8 µM; (ICRF193 200 nM) above 45.8 µM.
For the compound `Cc1onc(-c2ccccc2)c1-c1ccc(S(N)(=O)=O)cc1` [Valdecoxib], the IC50 cell viability reads like this: (ICRF193 0 nM) above 45.8 µM; (ICRF193 200 nM) above 45.8 µM.
